IC50 and EC50 data for 20 molecules are collected here from ChEMBL document CHEMBL5608257, “Structure-Based Optimization of a Series of Covalent, Cell Active Bfl-1 Inhibitors” (J Med Chem, 2024).

The structures appear in SMILES notation.

Assay [1] has as its target T1, Bcl-2-related protein A1 (Homo sapiens, UniProt Q16548).
T1 sequence (Q16548 whole entry): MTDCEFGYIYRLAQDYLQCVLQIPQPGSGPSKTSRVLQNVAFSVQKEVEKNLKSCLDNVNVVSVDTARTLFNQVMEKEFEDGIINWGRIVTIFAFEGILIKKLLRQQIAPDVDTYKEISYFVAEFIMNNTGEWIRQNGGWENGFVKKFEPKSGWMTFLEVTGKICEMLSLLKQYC
The assay is described as follows: Inhibition of N-terminal His6-tagged recombinant Bfl-1 (1 to 151 residues)(unknown origin) extracted from Escherichia coli BL21-Gold (DE3) using HyLite Fluor 647-labeled Bim peptide as substrate incubated for 120 mins by TR-FRET assay.

The target in assay [2] is Induced myeloid leukemia cell differentiation protein Mcl-1 (Homo sapiens, UniProt Q07820). The assay is described as follows: Inhibition of Mcl-1 (unknown origin).
In assay [3] the target is T1, Bcl-2-related protein A1. The assay is described as follows: Inhibition of Bfl-1 in human SU-DHL-1 cells assessed as caspase-3/7 activation measured after 6 hrs by UPLC-MRM MS analysis. In kind it is cell-based.

Induced myeloid leukemia cell differentiation protein Mcl-1, sequence (Q07820 whole entry): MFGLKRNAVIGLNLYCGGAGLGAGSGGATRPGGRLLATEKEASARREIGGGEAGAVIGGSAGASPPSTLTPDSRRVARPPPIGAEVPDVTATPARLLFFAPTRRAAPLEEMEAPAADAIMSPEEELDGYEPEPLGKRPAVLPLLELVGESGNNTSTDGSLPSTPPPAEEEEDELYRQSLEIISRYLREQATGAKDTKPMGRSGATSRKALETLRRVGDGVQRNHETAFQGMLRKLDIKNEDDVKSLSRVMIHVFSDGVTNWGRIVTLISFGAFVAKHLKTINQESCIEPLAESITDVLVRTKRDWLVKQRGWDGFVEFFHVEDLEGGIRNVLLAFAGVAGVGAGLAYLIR

On to `C=CC(=O)N(Cc1ccc(C#N)c(Cl)c1)c1ccc(O[C@@H]2CC[C@@H](N)C2)cc1` (racemic), for which the IC50 at Bcl-2-related protein A1 [1] amounted to 0.55 µM. As for `C=CC(=O)N(Cc1ccc(Cl)cc1)c1ccc(O[C@@H]2CC[C@@H](N(C)C)C2)cc1` (racemic), the IC50 at Bcl-2-related protein A1 [1] was found to be 0.44 µM.

As to `C=CC(=O)N(Cc1ccc(Cl)cc1)c1ccc(O[C@@H]2CC[C@@H](N(C)C(C)=O)C2)cc1` (racemic), the IC50 on Bcl-2-related protein A1 [1] was 22 µM. For the molecule `C=CC(=O)N(c1ccc(O[C@@H]2CC[C@@H](N)C2)cc1)[C@@H](C)c1ccc(C(F)(F)F)c(C#N)c1`, the IC50 in assay [2] is over 100 µM; at Bcl-2-related protein A1 [1] it was 0.022 µM. The EC50 on Bcl-2-related protein A1 [3] was determined as 0.37 µM.

`C=CC(=O)N(Cc1ccc(OC)cc1)c1ccccc1`: on Bcl-2-related protein A1 [1], the IC50 was over 100 µM. With `C=CC(=O)N(Cc1ccc(Cl)cc1)c1ccc(O[C@@H]2CC[C@@H](NC(=O)NC)C2)cc1` (racemic), the IC50 on Bcl-2-related protein A1 [1] was determined as 0.36 µM. For the molecule `C=CC(=O)N(c1ccc(O[C@@H]2CC[C@@H](N)C2)cc1)[C@H](C)c1ccc(C(F)(F)F)c(C#N)c1`, the IC50 at Bcl-2-related protein A1 [1] was found to be 1.6 µM. The EC50 on Bcl-2-related protein A1 [3] stood at 6.9 µM.

As for `C=CC(=O)N(Cc1ccc(C(F)(F)F)cc1)c1ccc(O[C@@H]2CC[C@@H](N)C2)cc1` (racemic), the IC50 on Bcl-2-related protein A1 [1] is 0.72 µM. In addition, on Bcl-2-related protein A1 [3], the EC50 was 2.6 µM. Consider `C=CC(=O)N(Cc1ccc(OC)cc1)c1ccccc1Cl`, for which the IC50 on Bcl-2-related protein A1 [1] turned out to be 29 µM. On the same count and under the same terms, the result for `C=CC(=O)N(Cc1ccc(Cl)cc1)c1ccc(O[C@@H]2CC[C@@H](NC(C)=O)C2)cc1` (racemic) reads 0.46 µM; that for `C=CC(=O)N(Cc1ccc(Cl)cc1)c1ccc(O[C@@H]2CC[C@@H](NC)C2)cc1` (racemic), 0.38 µM. Consider `C=CC(=O)N(Cc1ccc(Cl)cc1)c1ccc(F)cc1`, for which, on Bcl-2-related protein A1 [1], the IC50 worked out at 5.1 µM. With `C=CC(=O)N(Cc1ccc(Cl)c(C#N)c1)c1ccc(O[C@@H]2CC[C@@H](N)C2)cc1` (racemic), the IC50 on Bcl-2-related protein A1 [1] stood at 0.35 µM. Besides, the EC50 at Bcl-2-related protein A1 [3] was found to be 3.7 µM. As for `C=CC(=O)N(Cc1ccc(Cl)cc1)c1ccc(O[C@H]2CC[C@H](N)C2)cc1`, on Bcl-2-related protein A1 [1], the IC50 was found to be 5.1 µM. For the molecule `C=CC(=O)N(Cc1ccc(Cl)cc1)c1ccc(O[C@@H]2CC[C@@H](N)C2)cc1`, at Bcl-2-related protein A1 [1], the IC50 was determined as 0.34 µM. On to `C=CC(=O)N(Cc1ccc(Cl)cc1)c1ccc(O[C@@H]2CC[C@@H](N)C2)cc1` (racemic), for which the IC50 on Bcl-2-related protein A1 [1] stood at 0.45 µM. In addition, on Bcl-2-related protein A1 [3], the EC50 was found to be 7.4 µM. As for `C=CC(=O)N(Cc1ccc(Cl)cc1)c1ccc(O[C@H]2CC[C@@H](N)C2)cc1` (racemic), on Bcl-2-related protein A1 [1], the IC50 is 42 µM.

As for `C=CC(=O)N(Cc1ccc(C(F)(F)F)c(C#N)c1)c1ccc(O[C@@H]2CC[C@@H](N)C2)cc1` (racemic), the IC50 on Bcl-2-related protein A1 [1] stood at 0.3 µM. Besides, the EC50 on Bcl-2-related protein A1 [3] amounted to 1.8 µM. With `C=CC(=O)N(Cc1ccc(OC)cc1)c1ccc(Cl)cc1`, at Bcl-2-related protein A1 [1], the IC50 turned out to be 19 µM. For the molecule `C=CC(=O)N(Cc1ccc(Cl)cc1)c1ccc(OC)cc1`, the IC50 on Bcl-2-related protein A1 [1] turned out to be 9.8 µM.

One may read the IC50 as the concentration that gives 50% inhibition. By EC50 is commonly meant the concentration that produces a half-maximal response.
